# Experimental data as given in patent US20190350955A1, “METHODS AND PHARMACEUTICAL COMPOSITIONS FOR THE TREATMENT OF CARDIOMYOPATHIES” (INSERM (Institut National de la Sante et de la Recherche …, priority 2016, published 2019).
# Tests used:
# Type in all cases: in vivo, mouse
# Lmna^H222P/H222P mice [1] = test: qPCR of cardiac remodeling markers Myh7, Nppa, Col1a2 in heart; settings: NR diet 9 weeks vs chow-diet
# Protocol: (§1) Mice were bred in an accredited animal facility (accreditation number: C-75-13-08). All experiments on mice were approved by the Comité d'éthique en expérimentation animate Charles Darwin No 5. Mice Lmna^H222P/H222P were backcrossed 8 times to 129S2/SvPasOrlRj strain mice to obtain pure genetic background. Male mice used for the studies were maintained under a 12 h light/12 h dark cycle at constant temperature (23° C.) with free access to food and water. Nicotinamide riboside (NR) complementation: Animals at 17 weeks of age were fed for 9 weeks with either a chow diet (A04: Scientific Animal Food & Engineering) or a chow diet complemented with 0.25% of NR (kindly provided by ChromaDex, Inc. California) corresponding to a dose of 400 mg/kg/day for a mouse weighing 25 g eating 4 g of food per day. Nicotinamide (NAM) treatment: Animals at 17 weeks of age were injected intraperitoneally (IP) every two days (q.a.d.) for 9 weeks with either physiologic serum or physiologic serum added with NAM at 50 mg/ml corresponding to a dose of 500 mg/kg for a mouse weighing 25 g.
# Total RNAs were extracted from around 5 mg of mouse heart using RNeasy Mini kit (Qiagen). RNAs integrity were controlled on the Bioanalyzer 2100 (Agilent). […] Relative mRNA transcript levels calculated using the 2^ΔCT method were normalized by comparison to housekeeping mRNA.
# citrate synthase = test: Citrate synthase activity in left ventricular myocardium; settings: SRF HKO left ventricular myocardium at D50, NR diet
# Protocol: SRF^HKO and control (Sf/Sf) mice were administered either rodent maintenance SAFE A04 diet containing 3.10% crude fat. 16.10% crude proteins. 26% starch and 1.9% sugar (Scientific Animal Food Engineering, Paris, France) or SAFE # A04 diet supplemented with NR. NR was provided by Chromadex under brand name NIAGEN (Irvine Calif. USA). The soft pellets were manually prepared every 5 days by mixing 1.65 g of NR into 500 g of powdered SAFE A04 diet and 235 ml of water to reach 2.24 mg of NR/g (wet weight). Control diet was prepared in the same way omitting NR. Mice had ad libitum access to food and water. […]
# Frozen tissue samples were weighed, homogenized (Bertin Precellys 24) in ice-cold buffer (50 mg/ml) containing HEPES 5 mM (pH 8.7), EGTA 1 mM, DTT 1 mM and 0.1% Triton X-100. Citrate synthase (CS), activity was determined in homogenized ventricles as previously described (Kuznetsov et al. (2008). Analysis of mitochondrial function in situ in permeabilized muscle fibers, tissues and cells. Journal 3, 965-976). Activities of enzymes were determined by standard spectrophotometric assays. Briefly, for citrate synthase (CS), approximately 0.5 μg of protein were added in 1 ml of Buffer M (Trizma 100 mM (pH 8), 5,5′-dittiobis-(2-Nitrobenzenoic acid) 0.1 mM, Acetyl-CoA 0.3 mM, oxaloacetatic acid 0.5 mM) and the absorbance at 412 nm was measured during 3 min. […]
# Lmna^H222P/H222P mice [2] = test: NAD+ content quantification in heart and liver of treated Lmna H222P/H222P mice; settings: NR complemented diet 400 mg/kg/day, from 17 weeks of age for 9 weeks, vs chow-diet
# Protocol: as §1, with “Nicotinamide (NAM) treatment: Animals at 17 weeks of age were injected intraperitoneally (IP) every two days (q.a.d.) for 9 weeks with either physiologic serum or physiologic serum added with NAM at 50 mg/ml corresponding to a dose of 500 mg/kg for a mouse weighing 25 g.” left out
# (§2) Fresh mouse tissues were homogenized and processed according to previous report (Sander B J, Oelshlegel F J & Brewer G J (1976) Quantitative analysis of pyridine nucleotides in red blood cells: a single-step extraction procedure. Anal. Biochem. 71: 29-36). The concentration of NAD+ in heart tissue was determined using a spectrophotometric assay at 550 nm based on an alcohol dehydrogenase cycling reaction, in which a Methyl Thiazolyl Tetrazolium (MTT) is reduced to Formazan. […]
# Lmna^H222P/H222P mice [3] = test: Survival of Lmna H222P/H222P mice on NR diet
# Protocol: as §1
# For survival analysis, Lmna^H222P/H222P mice were fed chow supplemented with 0.25% nicotinamide riboside when they were 17 weeks of age and continued until they suffered from significant distress or died. p≤0.001
# Lmna^H222P/H222P mice [4] = test: Echocardiography and heart size in treated Lmna H222P/H222P mice
# Protocol: as §1
# Mouse transthoracic echocardiography was performed using an ACUSON 128XP/10 ultrasound with a 11 Mhz linear probe (Mountain View).MHz transducer applied to the chest wall. Mice were maintained under anesthetized with 0.75% isoflurane anaesthesia (0.75% in O2) and placed on a heating pad (25° C.). Left ventricular (LV) parameters were obtained from M-mode recordings in a modified short axis view. The intra ventricular septum (IVS), LV posterior wall (LVPW), LV diameter (LVD) in diastole and systole, the percentage of fractional shortening (FS) and the heart rate (HR) were measured from the mean of at least three separate cardiac cycles. A “blinded” echocardiographer, unaware of the genotype and the treatment, performed the examinations.
# Lmna^WT/WT mice = test: NAD+ content quantification in heart and liver of treated wild type mice; settings: NR diet same dosage (400 mg/kg/day), 9 weeks
# Protocol: as §1, with “Nicotinamide (NAM) treatment: Animals at 17 weeks of age were injected intraperitoneally (IP) every two days (q.a.d.) for 9 weeks with either physiologic serum or physiologic serum added with NAM at 50 mg/ml corresponding to a dose of 500 mg/kg for a mouse weighing 25 g.” left out
# as §2
# [5] = NR diet 400 mg/kg/day vs chow-diet, echocardiography after 4 and 9 weeks
smiles,measurement,setting,value
"NC(=O)c1ccc[n+]([C@@H]2O[C@H](CO)[C@@H](O)[C@H]2O)c1 [NR, nicotinamide riboside]","expression of Myh7, Nppa and Col1a2 (markers of cardiac remodeling)",Lmna^H222P/H222P mice [1],significant lowering
same,citrate synthase activity,citrate synthase,protected against the decline
same,NAD+ content in liver and heart,Lmna^H222P/H222P mice [2],increase of their NAD+ content in both the liver and the heart
same,mice that died over the course of the treatment protocol,"Lmna^H222P/H222P mice [3]; NR diet 400 mg/kg/day, 9 weeks from 17 weeks of age, 38% of chow-diet mice died",none
same,age at which mice started to die,"Lmna^H222P/H222P mice [3]; pilot survival study, NR feeding from 17 weeks of age, chow-diet 30 weeks",38 weeks
same,mean of survival,"Lmna^H222P/H222P mice [3]; pilot survival study, NR feeding from 17 weeks of age, chow-diet 33 weeks",39 weeks
same,left-ventricular end diastolic diameter (LVDd),Lmna^H222P/H222P mice [4]; [5],significantly decreased
same,left-ventricular end systolic diameter (LVDs),Lmna^H222P/H222P mice [4]; [5],significantly decreased
same,left-ventricular fractional shortening (FS),"Lmna^H222P/H222P mice [4]; NR diet 400 mg/kg/day vs chow-diet, starting as early as four weeks of treatment",increased
same,overall heart size,Lmna^H222P/H222P mice [4]; NR diet vs chow-diet,reduced
same,cellular NAD+ content in liver and heart,Lmna^WT/WT mice,same significant benefit
